Here are results for 19 molecules from patent publication US9783539B2, “Indoloquinolone compounds as anaplastic lymphoma kinase (ALK) inhibitors” (Jiangsu Ascentage Biomed Development Inc., priority 2014, dated 2017).

Data set [1] addresses wild-type human ALK protein (cytoplasmic domain, amino acid 1058-1620, GST-fusion) (Homo sapiens, UniProt Q9UM73). The data set is described as follows: biochemical. The note with it: ALK IC50, wild-type ALK; 100 μM ATP.
Protocol: Kinase activities of all enzymes were assessed using a Lance TR-FRET assay kit from Perkin Elmer Life Sciences (Waltham, Mass.). 2.5 μL of compound solution and 5 μL of protein solution were added into a black low volume 384 well microtiter plate which was incubated for 15 minutes with gentle shaking at room temperature, followed by adding 2.5 μL of fluorescently labeled peptide substrate (Ulight-[sequence]) and ATP mixture solution. The kinase reaction was performed in 50 mM HEPES (pH 7.5) with 1 mM EGTA, 1 mM MgCl2, and 2 mM DTT, 0.01% Tween-20 added right before the assay. […] The reaction was allowed to perform for 90 minutes in dark with gentle shaking at room temperature after which 10 μL of 20 mM EDTA and 2 nM Eu-W1024 anti-phosphotyrosine antibody (PT66) mixture solution in the detection buffer from the manufacturer was added to terminate the reaction and detect the phosphorylation of the peptide substrate. Final mixture was incubated in the dark for 1 hour before the plate was read on a Tecan Infinite M-1000 multi-mode plate reader (Tecan, Durham N.C.) with an excitation wavelength of 320 nm.
The subject of data set [2] is Kappas-299 cells containing NPM-ALK fusion protein. The data set is described as follows: 4-day cell viability assay (CellTiter-Glo), Kappas-299. It is filed as cell-based. The note with it: inhibition of cell growth, 4 days, multiple values from independent experiments. How it is done:
The effect of compounds on cell viability was determined in a 4-day proliferation assay. Cells were maintained in RPMI1640 culture medium with 10% FBS at 37° C. and an atmosphere of 5% CO2. […] Cells were seeded in 96-well plates at a density of 3,000-10,000 cells/well in 75 μl of culture medium. Compounds were serially diluted in the appropriate medium, and 75 μl of the diluted compounds were added to the appropriate wells of the cell plate. After the addition of compounds, the cells were incubated at 37° C. in an atmosphere of 5% CO2 for 4 days. Cell viability was determined using the CellTiter-Glo® Luminescent Cell Viability Assay Kit (Promega, Madison, Wis.) (for KARPAS-299 cells) or WST (2-(2-methoxy-4-nitrophenyl)-3-(4-nitrophenyl)-5-(2,4-disulfophenyl)-2H-tetrazolium, monosodium salt) Cell Counting-8 Kit (Dojindo Molecular Technologies, Inc., Rockville, Md.) (for H3122 cells) according to the manufacturers' instructions.
For CellTiter-Glo assay, 100 μl of CellTiter-Glo® Reagent was added to each well, and then the plates were incubated at room temperature for 10-20 minutes. The luminescent signal was measured using a Tecan Infinite M1000 multimode microplate reader (Tecan, Morrisville, N.C.). The readings were normalized to the DMSO-treated cells and the IC50 was calculated by nonlinear regression analysis using the GraphPad Prism 5 software.
Cells were treated for four days and cell growth was determined using a CellTiter-Glo assay.
(In general: Cellular ATP, detected with luciferase, serves as a proxy for viable cell number.)

The nature of data set [3]: Pharmacokinetic parameters in SD rats, IV and PO. The arrangement: AUC(0-t): concentration or dose not given beside the values. The note with it: Sprague-Dawley (SD), rat, in vivo; for bioavailability: po, read-out: Oral Bioavailability (F). From the text:
The pharmacokinetic (PK) parameters in SD rats for selected compounds with intravenous (IV) and oral (PO) administrations are provided in the following table (Table 5).

The mark [4] stands for this setting: intravenous, read-out: AUC0-t IV.
Setting [5] is: intravenous, read-out: t1/2 IV (converted).
Setting [6] is: oral, read-out: t1/2 PO (converted).

“And” between values parts separate entries of the source, which are not always exact repeats. Equal entries are not always repeated. Where two headings read alike, the source gives them in different places.

Sequence of wild-type human ALK protein (cytoplasmic domain, amino acid 1058-1620, GST-fusion) (Q9UM73 1058-1620): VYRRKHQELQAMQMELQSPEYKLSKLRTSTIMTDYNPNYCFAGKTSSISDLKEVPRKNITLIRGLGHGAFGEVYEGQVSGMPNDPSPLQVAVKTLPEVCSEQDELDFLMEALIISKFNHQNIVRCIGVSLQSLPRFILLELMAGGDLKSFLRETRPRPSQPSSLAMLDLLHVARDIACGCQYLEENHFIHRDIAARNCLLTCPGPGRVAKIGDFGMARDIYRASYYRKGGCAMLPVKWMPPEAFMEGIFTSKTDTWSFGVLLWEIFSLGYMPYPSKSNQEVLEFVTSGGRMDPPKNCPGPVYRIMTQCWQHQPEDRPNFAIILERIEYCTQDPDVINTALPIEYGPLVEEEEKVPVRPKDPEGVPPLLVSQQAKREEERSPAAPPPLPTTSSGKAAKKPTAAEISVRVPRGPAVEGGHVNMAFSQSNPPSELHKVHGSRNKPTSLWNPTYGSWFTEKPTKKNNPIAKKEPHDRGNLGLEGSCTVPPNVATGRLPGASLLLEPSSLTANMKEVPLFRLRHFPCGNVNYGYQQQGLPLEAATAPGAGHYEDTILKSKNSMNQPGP

Regarding `CCc1cc2c(=O)c3c4ccc(C#N)cc4[nH]c3n(C(C)C)c2cc1N1CCNCC1` [ALK-81, 2-Ethyl-5-isopropyl-11-oxo-3-(piperazin-1-yl)-6,11-dihydro-5H-indolo[2,3-b]quinoline-8-carbonitrile], the IC50 in data set [1] came to 0.1 nM; in data set [2] (NPM-ALK, 96 h), 440 nM.

`COc1cc2c(=O)c3c4ccc(C#N)cc4[nH]c3n(C(C)C)c2c(F)c1C1CCN(C)CC1` [CJ-2212, 4-Fluoro-5-isopropyl-2-methoxy-3-(1-methylpiperidin-4-yl)-11-oxo-6,11-dihydro-5H-indolo[2,3-b]quinoline-8-carbonitrile]: the AUC(0-t) was 574 ng·h/mL in data set [3] (setting [4]) and 2060 ng·h/mL in data set [3] (oral, read-out: AUC0-t PO). The Cmax in data set [3] (intravenous, read-out: Cmax IV) was found to be 169 ng/mL; in data set [3] (oral, read-out: Cmax PO), 208 ng/mL. In addition, the time of peak concentration (Tmax) is 4.98 min in data set [3] (intravenous, read-out: Tmax IV) and 320 min in data set [3] (oral, read-out: Tmax PO). The figures for the half-life in data set [3] (setting [5]) and in data set [3] (setting [6]) were 287 min and 245 min, respectively. The bioavailability in data set [3] came to 70.6%.

On to `CCc1cc2c(=O)c3c4ccc(C#N)cc4[nH]c3n(CC)c2cc1N1CCN(C)CC1` [ALK-49, 2,5-Diethyl-3-(4-methylpiperazin-1-yl)-11-oxo-6,11-dihydro-5H-indolo[2,3-b]quinoline-8-carbonitrile], for which the 50% inhibitory concentration (IC50) was 1.9 nM and 2.8 nM in data set [1]; 317 nM in data set [2] (NPM-ALK, 96 h); 546 nM in data set [2].

For `COc1cc2c(=O)c3c4ccc(C#N)cc4[nH]c3n(C(C)C)c2c(F)c1C1CCN(C2COC2)CC1` [CJ-2224, 4-Fluoro-5-isopropyl-2-methoxy-3-(1-(oxetan-3-yl)piperidin-4-yl)-11-oxo-6,11-dihydro-5H-indolo[2,3-b]quinoline-8-carbonitrile], the AUC(0-t) in data set [3] (setting [4]) came out at 2340 ng·h/mL; in data set [3] (oral, read-out: AUC0-t PO), 9640 ng·h/mL. Besides, the maximum concentration (Cmax) in data set [3] (intravenous, read-out: Cmax IV) was determined as 959 ng/mL; in data set [3] (oral, read-out: Cmax PO) it was 1170 ng/mL. Besides, the time of peak concentration (Tmax) in data set [3] (intravenous, read-out: Tmax IV) was 4.98 min; in data set [3] (oral, read-out: Tmax PO), 40.2 min. The values for the half-life in data set [3] (setting [5]) and in data set [3] (setting [6]) were 283 min and 232 min, respectively. For the same molecule, the bioavailability in data set [3] came to 81.5%.

Regarding `COc1cc2c(=O)c3c4ccc(C#N)cc4[nH]c3n(C(C)C)c2c(F)c1C1CCN(C2CCOCC2)CC1` [CJ-2226, 4-Fluoro-5-isopropyl-2-methoxy-11-oxo-3-(1-(tetrahydro-2H-pyran-4-yl)piperidin-4-yl)-6,11-dihydro-5H-indolo[2,3-b]quinoline-8-carbonitrile], the AUC(0-t) is 1000 ng·h/mL in data set [3] (setting [4]) and 2370 ng·h/mL in data set [3] (oral, read-out: AUC0-t PO). Besides, the Cmax stood at 296 ng/mL in data set [3] (intravenous, read-out: Cmax IV) and 230 ng/mL in data set [3] (oral, read-out: Cmax PO). Moreover, the Tmax in data set [3] (intravenous, read-out: Tmax IV) worked out at 4.98 min; in data set [3] (oral, read-out: Tmax PO), 280 min. For the same molecule, the half-life in data set [3] (setting [5]) is 262 min; in data set [3] (setting [6]), 299 min. Moreover, in data set [3], the bioavailability stood at 47.3%.

As for `C=C(C)c1cc2c(=O)c3c4ccc(C#N)cc4[nH]c3n(C(C)C)c2cc1N1CCN(C)CC1` [ALK-51, 5-isoPropyl-3-(4-methylpiperazin-1-yl)-11-oxo-2-(prop-1-en-2-yl)-6,11-dihydro-5H-indolo[2,3-b]quinoline-8-carbonitrile], the IC50 in data set [1] is 20.5 nM; in data set [2] (NPM-ALK, 96 h) it was 70 nM; in data set [2], 99 nM.

For `COc1cc2c(=O)c3c4ccc(C#N)cc4[nH]c3n(C)c2cc1N1CCN(C)CC1` [ALK-23, 2-Methoxy-5-methyl-3-(4-methylpiperazin-1-yl)-11-oxo-6,11-dihydro-5H-indolo[2,3-b]quinoline-8-carbonitrile], in data set [1], 309 nM corresponded to half-maximal inhibition (IC50).

Take `CCc1cc2c(=O)c3c4ccc(C#N)cc4[nH]c3n(C(C)C)c2cc1N1CCOCC1` [ALK-82, 2-Ethyl-5-isopropyl-3-morpholino-11-oxo-6,11-dihydro-5H-indolo[2,3-b]quinoline-8-carbonitrile]: the 50% inhibitory concentration (IC50) in data set [1] came to 2.3 nM; in data set [2] (NPM-ALK, 96 h) it was 46 nM.

For the molecule `CC(C)n1c2cc(N3CCN(C)CC3)c(OC(F)F)cc2c(=O)c2c3ccc(C#N)cc3[nH]c21` [ALK-59, 2-(Difluoromethoxy)-5-isopropyl-3-(4-methylpiperazin-1-yl)-11-oxo-6,11-dihydro-5H-indolo[2,3-b]quinoline-8-carbonitrile], the IC50 in data set [1] stood at 1.6 nM; in data set [2] (NPM-ALK, 96 h), 447 nM.

Take `COc1cc2c(=O)c3c4ccc(C#N)cc4[nH]c3n(C(C)C)c2cc1N1CCC(N2CCOCC2)CC1` [ALK-25, 5-isoPropyl-2-methoxy-3-(4-morpholinopiperidin-1-yl)-11-oxo-6,11-dihydro-5H-indolo[2,3-b]quinoline-8-carbonitrile]: the IC50 in data set [1] was 17.8 nM; in data set [2] (NPM-ALK, 96 h), 137 nM.

In the case of `C=Cc1cc2c(=O)c3c4ccc(C#N)cc4[nH]c3n(C(C)C)c2cc1N1CCN(C)CC1` [ALK-46, 5-isoPropyl-3-(4-methylpiperazin-1-yl)-11-oxo-2-vinyl-6,11-dihydro-5H-indolo[2,3-b]quinoline-8-carbonitrile], the IC50 in data set [1] is 1.8 nM and 1.5 nM; in data set [2] (NPM-ALK, 96 h), 60 nM; in data set [2], 102 nM.

Consider `CCC(CC)n1c2cc(N3CCN(C)CC3)c(OC)cc2c(=O)c2c3ccc(C#N)cc3[nH]c21` [ALK-40, 2-Methoxy-3-(4-methylpiperazin-1-yl)-11-oxo-5-(pentan-3-yl)-6,11-dihydro-5H-indolo[2,3-b]quinoline-8-carbonitrile], for which the IC50 in data set [1] stood at 29.7 nM; in data set [2] (NPM-ALK, 96 h), 415 nM.

On to `COc1cc2c(=O)c3c4ccc(C#N)cc4[nH]c3n(C)c2cc1N1CCC(N2CCOCC2)CC1` [ALK-22, 2-Methoxy-5-methyl-3-(4-morpholinopiperidin-1-yl)-11-oxo-6,11-dihydro-5H-indolo[2,3-b]quinoline-8-carbonitrile], for which the 50% inhibitory concentration (IC50) in data set [1] was 661 nM; in data set [2] (NPM-ALK, 96 h), 90.3 nM.

For the molecule `CCc1cc2c(=O)c3c4ccc(C#N)cc4[nH]c3n(C3CCCC3)c2cc1N1CCN(C)CC1` [ALK-48, 5-Cyclopentyl-2-ethyl-3-(4-methylpiperazin-1-yl)-11-oxo-6,11-dihydro-5H-indolo[2,3-b]quinoline-8-carbonitrile], the IC50 turned out to be 15.1 nM in data set [1]; 70 nM in data set [2] (NPM-ALK, 96 h); 84 nM in data set [2].

For `COc1cc2c(=O)c3c4ccc(C#N)cc4[nH]c3n(CC(C)(C)C)c2cc1N1CCN(C)CC1` [ALK-43, 2-Methoxy-3-(4-methylpiperazin-1-yl)-5-neopentyl-11-oxo-6,11-dihydro-5H-indolo[2,3-b]quinoline-8-carbonitrile], the concentration for half-maximal inhibition (IC50) in data set [1] was found to be 28.5 nM; in data set [2] (NPM-ALK, 96 h), 266 nM; in data set [2], 261 nM.

Take `COc1cc2c(=O)c3c4ccc(C#N)cc4[nH]c3n(C(C)C)c2c(F)c1C1CCN(C(C)C)CC1` [CJ-2225, 4-Fluoro-5-isopropyl-3-(1-isopropylpiperidin-4-yl)-2-methoxy-11-oxo-6,11-dihydro-5H-indolo[2,3-b]quinoline-8-carbonitrile]: the AUC(0-t) in data set [3] (setting [4]) was 1110 ng·h/mL; in data set [3] (oral, read-out: AUC0-t PO), 2340 ng·h/mL. Further, the peak concentration (Cmax) in data set [3] (intravenous, read-out: Cmax IV) was 212 ng/mL; in data set [3] (oral, read-out: Cmax PO), 225 ng/mL. The Tmax worked out at 13.3 min in data set [3] (intravenous, read-out: Tmax IV) and 320 min in data set [3] (oral, read-out: Tmax PO). Also, the figures for the half-life in data set [3] (setting [5]) and in data set [3] (setting [6]) were 272 min and 259 min, respectively. Also, in data set [3], the bioavailability came out at 41.7%.

For `CCc1cc2c(=O)c3c4ccc(C#N)cc4[nH]c3n(C3CCC3)c2cc1N1CCN(C)CC1` [ALK-45, 5-cyclobutyl-2-ethyl-3-(4-methylpiperazin-1-yl)-11-oxo-6,11-dihydro-5H-indolo[2,3-b]quinoline-8-carbonitrile], the IC50 in data set [1] is 1.8 nM and 5.1 nM; in data set [2] (NPM-ALK, 96 h), 35 nM; in data set [2], 62 nM.

Regarding `CCc1cc2c(=O)c3c4ccc(C#N)cc4[nH]c3n(C(C)C)c2cc1C1CCNCC1` [CJ-2204, 2-Ethyl-5-isopropyl-11-oxo-3-(piperidin-4-yl)-6,11-dihydro-5H-indolo[2,3-b]quinoline-8-carbonitrile], the IC50 in data set [1] was found to be 0.26 nM; in data set [2] (NPM-ALK, 96 h), 768 nM.

As to `CCOc1cc2c(=O)c3c4ccc(C#N)cc4[nH]c3n(C3CCCC3)c2cc1N1CCN(C)CC1` [ALK-54, 5-Cyclopentyl-2-ethoxy-3-(4-methylpiperazin-1-yl)-11-oxo-6,11-dihydro-5H-indolo[2,3-b]quinoline-8-carbonitrile], the half-maximal inhibitory concentration (IC50) in data set [1] turned out to be 24.7 nM; in data set [2] (NPM-ALK, 96 h) it was 63 nM.

The term IC50 denotes the concentration that gives 50% inhibition. What is called Cmax is the maximum level reached in the sampled fluid or tissue. Broadly, the Tmax is the time from dosing to the highest level. One may read the bioavailability as dose-corrected exposure relative to a reference, in per cent.
